Measured values as given in patent publication US12194011B2, “Compositions comprising theanine, magnolia, and phellodendron” (Nutramax Laboratories, Inc., priority 2015, dated 2025).

Legend:
serotonin (5-HT) = experiment: Basal serotonin (5-HT) output in hippocampal microdialysate after 6 daily oral doses; assay type: in vivo; details: male C57BI mice, basal level before 7th dose, hippocampal dialysate, student's t-test p<0.05
Method: (§1) Neurotransmitter release patterns in the brain were measured by a procedure which involved inserting a probe into the […] region (microdialysis probe) of a laboratory animal and flushing the probe via dialysis with an artificial cerebrospinal fluid (CSF). This is an accepted and common method used to obtain and measure in vivo brain levels of neurotransmitters and other small […].
(§2) The fluid being collected represents the extracellular or interstitial fluid found in the hippocampal region of the brain. This area is usually the preferred and typical area for microdialysis analysis because any changes measured in this area of the brain are believed to correspond with approximately 80% of whole brain tissue. […]
(§3) For the evaluation, male C57BI mice were divided into groups (6 per group) and administered a variety of compounds or a placebo orally for seven days. […] Each aliquot was then analyzed to determine the amount of GABA, glutamate, and serotonin (5-HT) in each sample. […]
(§4) First, basal output levels of each neurotransmitter were measured to determine any long-term, chronic effects of each compound on the neurotransmitters. […] These levels were determined by averaging the levels of each neurotransmitter in the three, 30-minute aliquots prior to the administration of the 7th daily dose (Sample −90 min to −60, Sample −60 minutes to −30, and Sample −30 minutes to time 0). […]

GABA = experiment: Acute GABA output in hippocampal microdialysate after the 7th daily dose; assay type: in vivo, C57BI mice; details: up to 210 minutes after 7th daily dose, % of basal output, ANOVA p<0.05
Method: as §1, §2, §3, §4

glutamate = experiment: Acute glutamate output in hippocampal microdialysate after the 7th daily dose; assay type: in vivo, C57BI mice; details: after 7th daily dose, % of basal output
Method: as §1, §2, §3, §4

Wistar rats [1] = experiment: Elevated plus-maze (EPM) test; assay type: in vivo; details: PO daily for 14 days, 16 per group, vehicle 10 ± 2
Method: (§5) Wistar rats (16 per group) were dosed either with individual components (L-theanine, magnolia/phellodendron, and milk whey protein) or several combinations of the three, including the three-way combination (theanine+magnolia/phellodendron+milk whey protein). Magnolia/phellodendron combination was provided as a commercially available preparation (RELORA; InterHealth Nutraceuticals, Inc., Benicia, CA). Administered milk whey protein was standardized to 80% alpha-lactalbumin. The rats were dosed daily for 14 days, and then a series of behavioral assays were performed to detect any anxiolytic effects on the rats or sedative effects. The treatment groups were as follows: • 1: L-theanine+magnolia/phellodendron • 2: L-theanine+Milk Whey Protein • 3: magnolia/phellodendron+Milk Whey Protein • 4: L-theanine+magnolia/phellodendron+Milk Whey Protein • 5: L-theanine • 6: magnolia/phellodendron • 7: Milk Whey Protein
The elevated plus-maze (EPM) capitalizes on the natural aversion (trait anxiety) of rodents on brightly lit, open, and elevated areas. The EPM has very strong predictive ability and is often used to profile the potential anxiolytic activity of compounds. During this test, the rats are videotaped after being placed in the elevated maze. The videos are analyzed to determine the % of time the rats stay in the open, elevated portions of the maze. […]

Wistar rats [2] = experiment: Open-field activity as a measure of sedation; assay type: in vivo; details: PO daily for 14 days, vehicle 9062 ± 597
Method: as §5
Locomotor activity in an open field test is a good measure of the sedative properties of a compound. As one example, a noted side-effect of many anxiolytic compounds such as benzodiazepines is marked sedation in conjunction with administration. […]
This test is performed by placing a rat in an open, brightly lit enclosure. The rats are videotaped, and the total distance the rat travels during the testing period is recorded as an indicator of locomotor activity. […]

CCNC(=O)CC[C@H](N)C(=O)O [Compound A, L-theanine]
effect on basal output of serotonin (5-HT) vs placebo (serotonin (5-HT)): none of L-theanine, Relora, nor milk whey protein had any significant effect | acute treatment effect on GABA vs placebo (ANOVA) (GABA): no statistically significant treatment effects | immediate treatment effect on glutamate levels (glutamate): neither the individual components (A, B, C) nor the combination (A+B+C) had an immediate treatment effect | Mean % Time in open arms ± SEM (Wistar rats [1]): 13 ± 2% | Mean Distance (cm) ± SEM (Wistar rats [2]): 9971 ± 652 cm
